Data from patent EP1247803A2, “Indolinone compounds suitable for modulation of protein kinases” (Sugen, Inc., priority 1996, dated 1998).

Columns and labels:
MET = MET biochemical kinase assay; set-up: species or system human; concentration or dose not given beside the values
How it was run: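 In this format, tyrosine phosphorylation of plate-captured human MET is followed in vitro after compound addition in ATP/divalent-cation buffer, detected by anti-phosphotyrosine-HRP with TMB substrate.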

FLK-1 receptor = target: T1, FLK-1 receptor (Mus musculus, UniProt P35918); experiment: FLK-1 ELISA (kinase activity of the FLK-1 receptor in FLK-1/NIH3T3 cells, VEGF stimulated); format: cell-based
T1 construct: expressed in transfected cells; host or cells: NIH3T3 C7#3
How it was run: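 FLK-1-expressing NIH3T3 C7#3 cells, starved overnight in 0.1% FBS medium, were treated with compounds at a 1:200 final dilution (0.5% DMSO) for 2 h at 37 °C, with VEGF stimulation. FLK-1 kinase activity was read by ELISA on anti-rabbit IgG plates using affinity-purified anti-FLK-1 antiserum.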

T1 sequence (P35918 20-1345): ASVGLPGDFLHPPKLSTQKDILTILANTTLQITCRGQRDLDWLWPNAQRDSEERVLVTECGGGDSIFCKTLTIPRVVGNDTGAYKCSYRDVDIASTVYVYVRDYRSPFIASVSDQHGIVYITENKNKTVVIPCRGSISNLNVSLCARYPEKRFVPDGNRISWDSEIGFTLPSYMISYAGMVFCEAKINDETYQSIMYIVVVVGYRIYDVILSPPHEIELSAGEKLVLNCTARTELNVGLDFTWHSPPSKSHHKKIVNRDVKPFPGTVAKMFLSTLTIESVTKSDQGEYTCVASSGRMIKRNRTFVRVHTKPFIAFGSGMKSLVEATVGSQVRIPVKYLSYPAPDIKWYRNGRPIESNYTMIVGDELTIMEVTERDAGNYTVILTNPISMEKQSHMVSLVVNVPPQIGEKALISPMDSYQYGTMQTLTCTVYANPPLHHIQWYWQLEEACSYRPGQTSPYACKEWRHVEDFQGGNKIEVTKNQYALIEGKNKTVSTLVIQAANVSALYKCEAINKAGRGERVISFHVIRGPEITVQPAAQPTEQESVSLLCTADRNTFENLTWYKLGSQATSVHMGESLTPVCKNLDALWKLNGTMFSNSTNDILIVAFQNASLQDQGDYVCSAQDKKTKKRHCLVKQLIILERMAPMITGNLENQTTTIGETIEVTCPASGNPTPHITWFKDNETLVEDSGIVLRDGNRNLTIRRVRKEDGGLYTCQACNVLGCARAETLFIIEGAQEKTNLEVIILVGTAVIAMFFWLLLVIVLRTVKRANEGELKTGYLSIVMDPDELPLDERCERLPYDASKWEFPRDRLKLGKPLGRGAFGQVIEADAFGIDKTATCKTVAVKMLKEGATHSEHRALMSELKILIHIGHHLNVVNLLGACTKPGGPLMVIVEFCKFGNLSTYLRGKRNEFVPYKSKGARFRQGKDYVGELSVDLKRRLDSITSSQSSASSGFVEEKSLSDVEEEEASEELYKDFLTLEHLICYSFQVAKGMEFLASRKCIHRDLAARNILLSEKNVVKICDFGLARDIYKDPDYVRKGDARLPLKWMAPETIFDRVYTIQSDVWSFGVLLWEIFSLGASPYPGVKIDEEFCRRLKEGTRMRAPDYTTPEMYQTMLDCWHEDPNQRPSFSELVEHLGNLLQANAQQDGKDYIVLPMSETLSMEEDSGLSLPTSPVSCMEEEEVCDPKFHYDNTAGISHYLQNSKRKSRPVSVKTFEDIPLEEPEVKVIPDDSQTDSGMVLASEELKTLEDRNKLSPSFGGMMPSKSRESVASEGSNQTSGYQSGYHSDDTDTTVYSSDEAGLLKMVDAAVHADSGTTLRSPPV

SMILES	Met Kinase % Inhibition (MET) [%]	Fik Kinase %Inhibition (FLK-1 receptor) [%]
COc1ccc(C=C2C(=O)Nc3ccc(I)cc32)cc1OC [10720/B04]	61.8	9.8
O=C1Nc2ccc(I)cc2C1=Cc1ccccc1O [10720/B05]	51.8	11.6
O=C1Nc2ccc(I)cc2C1=Cc1ccccc1 [10720/B06]	55.1	7.3
CSc1ccc(C=C2C(=O)Nc3ccc(I)cc32)s1 [10720/B07]	61.5	12.0
Cc1cc(O)cc(O)c1C=C1C(=O)Nc2ccc(I)cc21 [10720/B08]	27.7	3.6
CCOc1cc(C=C2C(=O)Nc3ccc(I)cc32)ccc1O [10720/B09]	57.4	10.1
COc1ccc(O)c(C=C2C(=O)Nc3ccc(I)cc32)c1 [10720/B10]	45.2	-5.5
O=C1Nc2ccc(I)cc2C1=Cc1ncc[nH]1 [10720/B11]	42.1	-20.3
Cc1c(Br)ccc2c1C(=Cc1c(F)cc(F)cc1F)C(=O)N2 [10720/C02]	63.6	18.0
COc1cc(O)ccc1C=C1C(=O)Nc2ccc(Br)c(C)c21 [10720/C03]	50.3	15.1
COc1ccc(C=C2C(=O)Nc3ccc(Br)c(C)c32)cc1OC [10720/C04]	29.0	15.3
Cc1c(Br)ccc2c1C(=Cc1ccccc1O)C(=O)N2 [10720/C05]	72.5	-36.1
Cc1c(Br)ccc2c1C(=Cc1ccccc1)C(=O)N2 [10720/C06]	36.7	12.2
CSc1ccc(C=C2C(=O)Nc3ccc(Br)c(C)c32)s1 [10720/C07]	26.7	20.7
Cc1cc(O)cc(O)c1C=C1C(=O)Nc2ccc(Br)c(C)c21 [10720/C08]	65.6	10.9
CCOc1cc(C=C2C(=O)Nc3ccc(Br)c(C)c32)ccc1O [10720/C09]	47.5	12.1
COc1ccc(O)c(C=C2C(=O)Nc3ccc(Br)c(C)c32)c1 [10720/C10]	62.6	-21.1
Cc1c(Br)ccc2c1C(=Cc1ncc[nH]1)C(=O)N2 [10720/C11]	30.0	52.5
CNS(=O)(=O)c1ccc2c(c1)C(=Cc1c(F)cc(F)cc1F)C(=O)N2 [10720/D02]	17.8	12.1
CNS(=O)(=O)c1ccc2c(c1)C(=Cc1ccc(O)cc1OC)C(=O)N2 [10720/D03]	61.5	17.0
